Experimental data published in patent publication US20200254211A1, “STRESS RELIEVING DEVICE FOR VEHICLES” (DENSO CORPORATION, priority 2015, published 2020).

Columns and labels:
humans = settings: general statement; cited from earlier work
parasympathetic nerves = test: parasympathetic nerve state with respect to cedrol concentration (FIG. 4); type: in vivo, human
Protocol: Then, once cedrol concentration exceeds 300 μg/m^3, due to excessive relaxation, sleepiness is promoted.

[1] = system: α-II waves and θ waves in the brain; test: human brain waves recorded in an environment where cedrol is volatilized (FIG. 3); type: in vivo
Protocol: Further, from the start of volatilization of cedrol and until cedrol concentration reaches 300 μg/m^3, the activity voltage of α-II waves is greater than that of θ waves, and it is understood that this is suitable for relaxing a person. Further, once cedrol concentration exceeds 300 μg/m^3, the activity voltage of […] is greater than that of α-II waves, and it is understood that this is suitable for promoting sleepiness in a person.

[2] = system: parasympathetic nerve state (relaxation state) of test subjects; test: stress substitution experiment (FIG. 6); type: in vivo, human; settings: average of six test subjects, cedrol in diethylene glycol monobutyl ether
Text: In this experiment, instead of actual driving, a stress substitution experiment is applied to confirm effects. The stress substitution experiment may be, for example, repetitively performing simple calculations, handling heavy objects with difficult posture, etc.
In the above stress substitution experiment, with respect to an initial state, the parasympathetic nerve state (relaxation state) of the test subjects decreases when stressed. […] In other words, it is possible for a mixture solvent of cedrol is change an irritated state to a relaxed state.

For `C[C@@H]1CC[C@H]2C(C)(C)[C@H]3C[C@@]12CC[C@@]3(C)O` [cedrol], the “physiological effects in humans” value (humans) is listed as “lowering heat rate, respiratory rate, blood pressure, etc. in humans, and also increasing α-II waves in the brain”, the “lower limit of cedrol for exhibiting a relaxation effect” value (parasympathetic nerves; volatilization amount in vehicle cabin) is listed as 0.5 μg/m^3 and the “cedrol concentration at which sleepiness is promoted due to excessive relaxation” value (parasympathetic nerves; volatilized cedrol in air) is listed as “exceeds 300 μg/m^3”. For the same molecule, the “parasympathetic nerve state with increasing cedrol concentration” value (parasympathetic nerves; volatilized cedrol in air) was “parasympathetic nerves become significant”, the “cedrol concentration at which activity voltage of α-II waves is greater than that of θ waves (suitable for relaxing)” value ([1]; from the start of volatilization) was at most 300 μg/m^3 and the “activity voltages of α-II waves (relaxation) and θ waves (falling asleep)” value ([1]; human brain waves, volatilized cedrol, with rising concentration) was “both increase as the concentration of cedrol increases”. For the same molecule, the “cedrol concentration at which activity voltage of θ waves is greater than that of α-II waves (promoting sleepiness)” value ([1]; volatilized cedrol in air) was “exceeds 300 μg/m^3” and the “parasympathetic nerve state (relaxation state) after release of mixture solvent vapor to stressed test subjects” value [2] was “increases to above the initial state”.
